Assay [1] relates to p21 promoter-luciferase construct. Kind of assay: p21 reporter gene induction in HeLa cells transfected with p21 promoter-luciferase construct. Format: cell-based. Particulars: for p21 RP3: relative gene level of p21 induced compared to MS275 at 3 μM; for p21 RP10: relative level of p21 induced compared to MS275 at 10 μM; for p21 RP30: relative level of p21 induced compared to MS275 at 30 μM.

For the next assay, the target named is recombinant human HDAC8 (Homo sapiens (Human), UniProt Q9BY41). Briefly: HDAC8 inhibition: recombinant HDAC8 fluorometric assay. In kind it is biochemical. The note with it: recombinant human HDAC8, substrate Ac-Arg-His-Lys-Lys(ε-acetyl)-AMC.
A further assay addresses HDAC6 (Homo sapiens (Human), UniProt Q9UBN7). Kind of assay: Tubulin acetylation cytoblot assay (A549 cells). Particulars: 17-18 h, concentration for 50% induction of acetylated tubulin, read-out: Tub-ac EC50. Format: cell-based.

Each structure is given as a SMILES string.

Sequence of HDAC6 (Q9UBN7 whole entry): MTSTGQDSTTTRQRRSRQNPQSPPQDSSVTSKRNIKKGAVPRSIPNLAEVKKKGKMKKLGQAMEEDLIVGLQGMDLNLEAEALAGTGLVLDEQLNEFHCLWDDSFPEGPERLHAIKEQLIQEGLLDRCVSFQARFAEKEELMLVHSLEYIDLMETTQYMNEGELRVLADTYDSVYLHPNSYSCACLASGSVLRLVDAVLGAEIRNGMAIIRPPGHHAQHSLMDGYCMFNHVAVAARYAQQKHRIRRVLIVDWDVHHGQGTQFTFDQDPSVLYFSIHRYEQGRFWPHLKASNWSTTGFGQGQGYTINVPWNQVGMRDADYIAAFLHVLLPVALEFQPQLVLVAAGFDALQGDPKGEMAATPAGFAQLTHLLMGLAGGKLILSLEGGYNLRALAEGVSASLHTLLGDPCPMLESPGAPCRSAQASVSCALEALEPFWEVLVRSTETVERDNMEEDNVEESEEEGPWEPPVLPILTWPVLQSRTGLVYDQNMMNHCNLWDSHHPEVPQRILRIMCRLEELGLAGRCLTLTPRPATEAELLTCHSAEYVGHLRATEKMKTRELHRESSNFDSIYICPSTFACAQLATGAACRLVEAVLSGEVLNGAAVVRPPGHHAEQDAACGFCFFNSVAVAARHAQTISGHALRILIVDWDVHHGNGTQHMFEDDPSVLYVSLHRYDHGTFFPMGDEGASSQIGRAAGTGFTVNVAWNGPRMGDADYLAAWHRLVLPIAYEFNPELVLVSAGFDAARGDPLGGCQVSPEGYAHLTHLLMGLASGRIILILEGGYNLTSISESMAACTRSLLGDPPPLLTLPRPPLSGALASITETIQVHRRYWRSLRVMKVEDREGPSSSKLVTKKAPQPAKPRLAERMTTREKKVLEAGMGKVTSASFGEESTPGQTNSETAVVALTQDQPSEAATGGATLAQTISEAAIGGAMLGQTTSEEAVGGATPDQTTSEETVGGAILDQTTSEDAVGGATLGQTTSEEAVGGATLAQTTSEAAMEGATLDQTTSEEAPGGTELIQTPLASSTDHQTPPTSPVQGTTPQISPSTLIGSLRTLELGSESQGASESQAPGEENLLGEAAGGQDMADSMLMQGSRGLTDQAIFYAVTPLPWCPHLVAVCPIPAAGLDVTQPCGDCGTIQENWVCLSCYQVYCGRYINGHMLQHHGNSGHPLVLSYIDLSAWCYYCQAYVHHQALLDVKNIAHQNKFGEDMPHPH
Sequence of recombinant human HDAC8 (Q9BY41 whole entry): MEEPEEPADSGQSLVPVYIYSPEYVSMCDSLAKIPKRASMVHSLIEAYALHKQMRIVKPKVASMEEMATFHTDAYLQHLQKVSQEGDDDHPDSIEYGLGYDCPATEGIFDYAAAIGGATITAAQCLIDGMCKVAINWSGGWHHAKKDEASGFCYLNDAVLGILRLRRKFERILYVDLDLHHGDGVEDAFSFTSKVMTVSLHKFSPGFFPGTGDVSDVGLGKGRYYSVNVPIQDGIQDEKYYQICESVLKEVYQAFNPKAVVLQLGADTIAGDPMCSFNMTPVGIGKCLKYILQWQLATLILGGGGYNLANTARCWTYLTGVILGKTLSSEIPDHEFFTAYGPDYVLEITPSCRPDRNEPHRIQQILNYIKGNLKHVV

As to `COc1ccc(S(=O)(=O)NC2CCc3ccc(C(=O)NO)cc3C2)cc1OC` (stereo not drawn) [Example 45, 7-(3,4-Dimethoxy-benzenesulfonylamino)-5,6,7,8-tetrahydro-naphthalene-2-carboxylic acid hydroxyamide], in assay [1], the “p21 RP3” value is reported as 0.18, the “p21 RP10” value was determined as 0.18 and the “p21 RP30” value worked out at 0.46. Moreover, on recombinant human HDAC8, the IC50 was determined as 0.39 µM. In addition, the EC50 on HDAC6 is 3.43 µM.

With `O=C(NO)c1ccc2c(c1)CC(NS(=O)(=O)c1ccc(Cl)cc1Cl)CC2` (stereo not drawn) [Example 46, 7-(2,4-Dichloro-benzenesulfonylamino)-5,6,7,8-tetrahydro-naphthalene-2-carboxylic acid hydroxyamide], in assay [1], the “p21 RP3” value turned out to be 0.49, the “p21 RP10” value is given as 0.15 and the “p21 RP30” value is 0.01. For the same molecule, the half-maximal inhibitory concentration (IC50) on recombinant human HDAC8 is 0.19 µM. Besides, on HDAC6, the concentration for a half-maximal effect (EC50) was 4.86 µM.

As for `O=C(NO)c1ccc2c(c1)CC(NS(=O)(=O)c1ccc(Cl)c(Cl)c1)CC2` (stereo not drawn) [Example 47, 7-(3,4-Dichloro-benzenesulfonylamino)-5,6,7,8-tetrahydro-naphthalene-2-carboxylic acid hydroxyamide], in assay [1], the “p21 RP3” value amounted to 0.08, the “p21 RP10” value was found to be 0.01 and the “p21 RP30” value is recorded as −0.04. Besides, on recombinant human HDAC8, the IC50 is 0.47 µM. Besides, the EC50 on HDAC6 came to 3.42 µM.

As for `O=C(NO)c1ccc2c(c1)CC(NS(=O)(=O)c1cccnc1)CC2` (stereo not drawn) [Example 48, 7-(Pyridine-3-sulfonylamino)-5,6,7,8-tetrahydro-naphthalene-2-carboxylic acid hydroxyamide], in assay [1], the “p21 RP3” value amounted to 0.41, the “p21 RP10” value was found to be 0.17 and the “p21 RP30” value amounted to 0.17. In addition, the IC50 on recombinant human HDAC8 came out at 0.37 µM. For the same molecule, the EC50 at HDAC6 was 6.2 µM.

`O=C(NO)c1cc2c(cc1F)CCC(Nc1nccc(-c3cccnc3)n1)C2` (stereo not drawn) [Example 50, 3-Fluoro-7-(4-pyridin-3-yl-pyrimidin-2-ylamino)-5,6,7,8-tetrahydro-naphthalene-2-carboxylic acid hydroxyamide]: in assay [1], the “p21 RP3” value was found to be 0.26, the “p21 RP10” value turned out to be 0.03 and the “p21 RP30” value is on record as −0.01. Moreover, on recombinant human HDAC8, the IC50 turned out to be 1.51 µM. Besides, the EC50 at HDAC6 was 6.43 µM.

For the molecule `O=C(NO)c1cc2c(cc1F)CCC(NS(=O)(=O)c1ccc(Cl)cc1)C2` (stereo not drawn) [Example 51, 7-(4-Chloro-benzenesulfonylamino)-3-fluoro-5,6,7,8-tetrahydro-naphthalene-2-carboxylic acid hydroxyamide], in assay [1], the “p21 RP3” value was 0.20, the “p21 RP10” value was 0.03 and the “p21 RP30” value is listed as 0.00. Also, the IC50 at recombinant human HDAC8 is 1.28 µM. In addition, at HDAC6, the EC50 was determined as 5.2 µM.

On to `O=C(NO)c1cc2c(cc1F)CCC(NS(=O)(=O)c1cccc(Cl)c1)C2` (stereo not drawn) [Example 52, 7-(3-Chloro-benzenesulfonylamino)-3-fluoro-5,6,7,8-tetrahydro-naphthalene-2-carboxylic acid hydroxyamide], for which, in assay [1], the “p21 RP3” value was determined as 0.12, the “p21 RP10” value was 0.01 and the “p21 RP30” value is listed as −0.02. Moreover, the IC50 at recombinant human HDAC8 worked out at 0.93 µM. Besides, at HDAC6, the EC50 worked out at 3.74 µM.

As to `COc1cccc(C(=O)NC2CNc3ccc(C(=O)NO)cc3C2)c1` (stereo not drawn) [Example 54, 3-(3-Methoxy-benzoylamino)-1,2,3,4-tetrahydro-quinoline-6-carboxylic acid hydroxyamide], in assay [1], the “p21 RP3” value was 0.03, the “p21 RP10” value was determined as 0.03 and the “p21 RP30” value was 0.07. The IC50 at recombinant human HDAC8 was found to be 2.81 µM. For the same molecule, the EC50 at HDAC6 is 3.39 µM.

With `O=C(NO)c1ccc2c(c1)CC(NC(=O)c1ccc(Cl)cc1)CN2` (stereo not drawn) [Example 55, 3-(4-Chloro-benzoylamino)-1,2,3,4-tetrahydro-quinoline-6-carboxylic acid hydroxyamide], in assay [1], the “p21 RP3” value was 0.50, the “p21 RP10” value is 0.13 and the “p21 RP30” value is on record as 0.06. Besides, the IC50 at recombinant human HDAC8 came to 2.41 µM. For the same molecule, the 50% effective concentration (EC50) on HDAC6 came out at 2.69 µM.

The values above are taken from patent publication US8716285B2, “N-hydroxy-benzamids for the treatment of cancer” (Hoffmann-La Roche Inc., priority 2010, dated 2014).
